According to the supplement of paper PMC13380429:

Legend:
Settings in all cases: 72 h
Caco-2 [1] = assay: cell viability relative to DMSO; higher = less toxic
Calu-3 [2] = assay: as above
HepG2 [3] = assay: as above
U2OS [4] = assay: as above
Vero E6 [5] = assay: as above
Caco-2 [6] = assay: relative viability EC50 (midpoint between 100% and the lowest measured viability); higher = less toxic
Calu-3 [7] = assay: as above
HepG2 [8] = assay: as above
U2OS [9] = assay: as above
Vero E6 [10] = assay: as above
Caco-2 [11] = assay: drug sensitivity score (DSS) for viability; higher = more toxic; extreme values may be limits of the assay
Calu-3 [12] = assay: as above
HepG2 [13] = assay: as above
U2OS [14] = assay: as above
Vero E6 [15] = assay: as above

| Compound | cell viability (Caco-2 [1]; 1 nM) [%] | cell viability (Caco-2 [1]; 10 nM) [%] | cell viability (Caco-2 [1]; 100 nM) [%] | cell viability (Caco-2 [1]; 1000 nM) [%] | cell viability (Caco-2 [1]; 10000 nM) [%] | cell viability (Calu-3 [2]; 1 nM) [%] | cell viability (Calu-3 [2]; 10 nM) [%] | cell viability (Calu-3 [2]; 100 nM) [%] | cell viability (Calu-3 [2]; 1000 nM) [%] | cell viability (Calu-3 [2]; 10000 nM) [%] | cell viability (HepG2 [3]; 1 nM) [%] | cell viability (HepG2 [3]; 10 nM) [%] | cell viability (HepG2 [3]; 100 nM) [%] | cell viability (HepG2 [3]; 1000 nM) [%] | cell viability (HepG2 [3]; 10000 nM) [%] | cell viability (U2OS [4]; 1 nM) [%] | cell viability (U2OS [4]; 10 nM) [%] | cell viability (U2OS [4]; 100 nM) [%] | cell viability (U2OS [4]; 1000 nM) [%] | cell viability (U2OS [4]; 10000 nM) [%] | cell viability (Vero E6 [5]; 1 nM) [%] | cell viability (Vero E6 [5]; 10 nM) [%] | cell viability (Vero E6 [5]; 100 nM) [%] | cell viability (Vero E6 [5]; 1000 nM) [%] | cell viability (Vero E6 [5]; 10000 nM) [%] | relative viability EC50 (Caco-2 [6]) [µM] | relative viability EC50 (Calu-3 [7]) [µM] | relative viability EC50 (HepG2 [8]) [µM] | relative viability EC50 (U2OS [9]) [µM] | relative viability EC50 (Vero E6 [10]) [µM] | drug sensitivity score (Caco-2 [11]) | drug sensitivity score (Calu-3 [12]) | drug sensitivity score (HepG2 [13]) | drug sensitivity score (U2OS [14]) | drug sensitivity score (Vero E6 [15]) |
| --- | --- | --- | --- | --- | --- | --- | --- | --- | --- | --- | --- | --- | --- | --- | --- | --- | --- | --- | --- | --- | --- | --- | --- | --- | --- | --- | --- | --- | --- | --- | --- | --- | --- | --- | --- |
| CCOCCn1c(N2CCCN(C)CC2)nc2ccccc21 [emedastine] | 97.3 | 102 | 102 | 95.4 | 91.2 | 94.2 | 101 | 99.3 | 112 | 106 | 89 | 98.4 | 92.7 | 101 | 107 | 97.4 | 96.3 | 93 | 98.4 | 96 | 99.1 | 105 | 100 | 98.4 | 99.8 | > 10 | > 10 | > 10 | > 10 | > 10 | 0 | 0 | 0 | 0 | 0 |
| CCC(=O)N1CCN(c2ccc(-n3c(=O)ccc4cnc5ccc(-c6cnc7ccccc7c6)cc5c43)cc2C(F)(F)F)CC1 [torin-1] | 97.5 | 101 | 89.6 | 49.4 | 31.1 | 108 | 98.7 | 86.4 | 33.7 | 32.4 | 101 | 97.9 | 95 | 53.8 | 26.3 | 100 | 103 | 91.8 | 42.2 | 19 | 93.4 | 94.4 | 88.2 | 57.9 | 39.4 | 0.426 | 0.183 | 0.684 | 0.512 | 0.404 | 10.7 | 14.4 | 9.8 | 12 | 9.3 |
| C=C[C@]1(C)CC[C@@H](C(=C)C)C[C@H]1C(=C)C [beta-elemene] | 95.3 | 98.6 | 97.5 | 92.6 | 102 | 106 | 98.4 | 103 | 97.2 | 102 | 95.8 | 101 | 93.2 | 106 | 103 | 102 | 98 | 97 | 96.4 | 101 | 97.4 | 97.2 | 95.7 | 97.8 | 96.6 | > 10 | > 10 | > 10 | > 10 | > 10 | 0 | 0 | 0 | 0 | 0 |
